Source: patent US6861428B2, “Water-soluble phenylpyridazine compounds and compositions containing the same” (Kowa Co., Ltd., priority 2001, dated 2005)
Where two headings read alike, the source gives them in different places.

Columns and labels:
[1] = system: interleukin-1β production; test: Inhibitory activity against interleukin-1β production (LPS-stimulated HL-60 cells, ELISA); type: cell-based; settings: lipopolysaccharide 10 μg/mL, 3 days, Table 1, read-out: IL-1β production inhibiting activity IC50
Protocol: Inhibitory Activity Against Interleukin-1β Production
HL-60 cells were cultured for 4 days until confluence on RPMI 1640 medium with 10% fetal bovine serum (FBS) added thereto. The medium was centrifuged. The supernatant was discarded, and the cells were then suspended at 1×10^6 cells/mL on RPMI 1640 medium with 3% FBS, and lipopolysaccharide was added to give a final concentration of 10 μg/mL. The culture was inoculated at 1 mL/well to a 24-well plate. A sample compound was added at 1 μL/well, followed by culturing for 3 days. Three days later, the amount of interleukin-1β in each culture was determined by ELISA. Each IC50 value was determined by a comparison in yield with a control to which no test sample was added.

[2] = Water solubility test; type: physicochemical; settings: for Solubility (%): purified water, from amount of water required for dissolution; for Dissolution in amount of added water: 100 mL purified water added
Protocol: Each sample compound was weighed in the amount shown in Table 3, to which purified water was added in 0.05 mL aliquots. The solubility (%) of the compound was determined based on the amount of water required for its dissolution.

[3] = Oral absorbability test on rats and/or mice; type: in vivo; settings: orally administered to mice and/or rats, as in Experiment 3, FIGS. 2 to 6
Protocol: (§1) The compound of Example 83 and the comparative compound 3 were suspended at 2 mg/mL with a 0.5% MC solution in mortars, respectively, and were orally administered to male SD rats at 10 mg/5 mL/kg. Upon elapsed time of 0.25, 0.5, 1, 2, 4, 6 and 8 hours after the administration, blood samples were collected and then centrifuged to provide plasma samples. The plasma levels of the respective compounds were determined by HPLC. […] The compound of Example 83 is, therefore, useful as an orally dosable medicine.
In a similar manner as in Experiment 3, test compounds of Examples 23, 25, 143, 193, 245, 246, 247, 248 and 249 were orally administered to mice and/or rats to test their oral absorbability.

[4] = Oral absorbability test on rats; type: in vivo; settings: male SD rats, oral 10 mg/5 mL/kg, suspension in 0.5% MC, 0.25-8 hours, FIG. 1
Protocol: as §1

Compound	IC50 ([1]; Homo sapiens, 72 h) [µM]	Solubility (%) [2] [%]	Oral absorbability [3]	also measured
COc1ccc(-c2cc(CN(CCO)CCO)c(=O)n(CC3CC3)n2)cc1F.Cl [Example 23, 4-N,N-bis(2-hydroxyethyl)aminomethyl-2-cyclopropylmethyl-6-(3-fluoro-4-methoxyphenyl)-2H-pyridazin-3-one hydrochloride]	–	10	good absorbability	IC50 [1]: 12.3 µM
Cc1ccc(-c2cc(CN(C)C)c(=O)n(CC(C)C)n2)cc1.Cl [Example 45, 4-dimethylaminomethyl-2-isobutyl-6-(4-methylphenyl)-2H-pyridazin-3-one hydrochloride]	6.21	4	–	–
CCN(CC)Cc1cc(-c2ccc(C)cc2)nn(CC(C)C)c1=O.Cl [Example 47, 4-diethylaminomethyl-2-isobutyl-6-(4-methylphenyl)-2H-pyridazin-3-one hydrochloride]	5.2	>20	–	–
Cc1cc(-c2cc(CN(C)C)c(=O)n(CC(C)C)n2)ccc1F.Cl [Example 89, 4-dimethylaminomethyl-6-(4-fluoro-3-methylphenyl)-2-isobutyl-2H-pyridazin-3-one hydrochloride]	5.5	>20	–	–
CC(C)Cn1nc(-c2ccc(F)c(F)c2)cc(CN(CCO)CCO)c1=O.Cl [Example 108, 4-N,N-bis(2-hydroxyethyl)aminomethyl-6-(3,4-difluorophenyl)-2-isobutyl-2H-pyridazin-3-one hydrochloride]	–	>20	–	IC50 [1]: 3.44 µM
COc1ccc(-c2cc(CCCN)c(=O)n(CC3CC3)n2)cc1F.Cl [Example 217, 4-(3-aminopropyl)-2-cyclopropylmethyl-6-(3-fluoro-4-methoxyphenyl)-2H-pyridazin-3-one hydrochloride]	–	10	–	–
CCOC(=O)Nc1cc(-c2ccc(OC)cc2)nn(C/C=C/c2ccc(Cl)cc2)c1=O [compound 1, reference compound]	–	<0.001	–	Dissolution in amount of added water [2]: (insoluble)
CNC(=O)c1cc(-c2ccc(OC)cc2)nn(CC(C)C)c1=O [compound 2, reference compound]	–	<0.001	–	Dissolution in amount of added water [2]: (insoluble)
CNC(=O)c1cc(-c2ccc(OC)c(F)c2)nn(CC2CC2)c1=O [compound 3, reference compound]	–	<0.001	–	Dissolution in amount of added water [2]: (insoluble); Oral absorption (plasma level by HPLC) [4]: no substantial absorption
COc1ccc(-c2cc(C(=O)O)c(=O)n(C/C=C/c3ccc(Cl)cc3)n2)cc1 [compound 4, reference compound]	–	<0.001	–	Dissolution in amount of added water [2]: (insoluble)

Continued, in another order:

IC50 ([1]; Homo sapiens, 72 h) [µM]	Solubility (%) [2] [%]	Oral absorbability [3]	Compound	also measured
5.4	1	–	COc1ccc(-c2cc(CN3CCN(Cc4ccccc4)CC3)c(=O)n(CC3CC3)n2)cc1F.Cl.Cl [Example 18, 4-(4-benzyl-1-piperazinyl)methyl-2-cyclopropylmethyl-6-(3-fluoro-4-methoxyphenyl)-2H-pyridazin-3-one dihydrochloride]	–
1.01	>20	–	COc1ccc(-c2cc(CN3CCNCC3)c(=O)n(CC3CC3)n2)cc1F.Cl.Cl [Example 21, 2-cyclopropylmethyl-6-(3-fluoro-4-methoxyphenyl)-4-(1-piperazinyl)methyl-2H-pyridazin-3-one dihydrochloride]	–
2.74	0.4	good absorbability	COc1ccc(-c2cc(CN)c(=O)n(CC3CC3)n2)cc1F.Cl [Example 25, 4-aminomethyl-2-cyclopropylmethyl-6-(3-fluoro-4-methoxyphenyl)-2H-pyridazin-3-one hydrochloride]	–
0.27	–	–	Cc1cc(-c2cc(CN3CCN(C)CC3)c(=O)n(CC(C)C)n2)ccc1F.Cl.Cl [Example 83, 6-(4-fluoro-3-methylphenyl)-2-isobutyl-4-(4-methyl-1-piperazinyl)methyl-2H-pyridazin-3-one dihydrochloride]	Oral absorption (plasma level by HPLC) [4]: good absorption
8.55	10	good absorbability	Cc1cc(-c2cc(CN3CCN(C)CC3)c(=O)n(CC=Cc3ccc(Cl)cc3)n2)ccc1F.Cl.Cl [Example 143, 2-(4-chlorocinnamyl)-6-(4-fluoro-3-methylphenyl)-4-(4-methyl-1-piperazinyl)methyl-2H-pyridazin-3-one dihydrochloride]	melting point: 229.7 to 243.3 °C (dec.)
1.63	>10	–	CSc1ccc(-c2cc(CN3CCN(C)CC3)c(=O)n(CC3CC3)n2)cc1.Cl.Cl [Example 149, 2-cyclopropylmethyl-4-(4-methyl-1-piperazinyl)methyl-6-[4-(methylthio)phenyl]-2H-pyridazin-3-one dihydrochloride]	melting point: 234.6 to 239.2 °C
–	5	good absorbability	COc1ccc(-c2cc(CN3CCNCC3)c(=O)n(Cc3ccc(F)cc3)n2)cc1F.Cl.Cl [Example 193, 2-(4-fluorobenzyl)-6-(3-fluoro-4-methoxyphenyl)-4-(1-piperazinyl)methyl-2H-pyridazin-3-one dihydrochloride]	–
–	10	–	COc1ccc(-c2cc(CCCN3CCNCC3)c(=O)n(CC3CC3)n2)cc1F.Cl.Cl [Example 214, 2-cyclopropylmethyl-6-(3-fluoro-4-methoxyphenyl)-4-[3-(1-piperazinyl)propyl]-2H-pyridazin-3-one dihydrochloride]	–
–	10	good absorbability	COc1ccc(-c2cc(CN3CCN(C)CC3)c(=O)n(Cc3ccc(F)c(F)c3)n2)cc1F.Cl.Cl [Example 245, 2-(3,4-difluorobenzyl)-6-(3-fluoro-4-methoxyphenyl)-4-(4-methyl-1-piperazinyl)methyl-2H-pyridazin-3-one dihydrochloride]	–
–	2	good absorbability	COc1ccc(-c2cc(CN(C)C)c(=O)n(Cc3ccc(F)c(F)c3)n2)cc1F.Cl [Example 246, 2-(3,4-difluorobenzyl)-4-dimethylaminomethyl-6-(3-fluoro-4-methoxyphenyl)-2H-pyridazin-3-one hydrochloride]	–
–	10	good absorbability	Cc1cc(-c2cc(CN3CCN(C)CC3)c(=O)n(CCCc3ccc(Cl)cc3)n2)ccc1F.Cl.Cl [Example 247, 2-[3-(4-chlorophenyl)propyl]-6-(4-fluoro-3-methylphenyl)-4-(4-methyl-1-piperazinyl)methyl-2H-pyridazin-3-one dihydrochloride]	–
–	0.06	good absorbability	COc1ccc(-c2cc(CN3CCN(C)CC3)c(=O)n(CC=Cc3ccc(Cl)cc3)n2)cc1F.Cl.Cl [Example 248, 2-(4-chlorocinnamyl)-6-(3-fluoro-4-methoxyphenyl)-4-(4-methyl-1-piperazinyl)methyl-2H-pyridazin-3-one dihydrochloride]	–
–	0.03	good absorbability	COc1ccc(-c2cc(CN3CCN(CCO)CC3)c(=O)n(CC=Cc3ccc(Cl)cc3)n2)cc1F.Cl.Cl [Example 249, 2-(4-chlorocinnamyl)-6-(3-fluoro-4-methoxyphenyl)-4-[4-(2-hydroxyethyl)-1-piperazinyl]methyl-2H-pyridazin-3-one dihydrochloride]	–
